Test results taken from US7700602B2, “Amino-5,5-diphenylimidazolone derivatives for the inhibition of β-secretase” (Wyeth LLC, priority 2004, dated 2010).
Where two headings read alike, the source gives them in different places.

Assays:
human BACE1 = human BACE1 (Homo sapiens, UniProt P56817); assay: Fluorescent kinetic assay, inhibition of BACE1 (WABC-6 peptide substrate); assay type: biochemical;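 further: fluorescence monitored at 320 nm excitation and 420 nm emission every 40 s over 30 min, with the substrate cleavage rate taken from the linear slope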
human BACE2 = target: T1, human BACE2 (Homo sapiens, UniProt Q9Y5Z0); assay: Fluorescent Kinetic Assay for Human Recombinant BACE 2 (selectivity BACE1/BACE2); assay type: biochemical; details: selectivity BACE1 over BACE2; 1.5 nM human BACE2, 25 μM substrate, pH 4.5;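 further: cleavage rate from the linear slope of fluorescence (excitation 320 nm, emission 420 nm) recorded every 40 s over 30 min at room temperature, sodium acetate buffer with 0.05% CHAPS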
T1 sequence (Q9Y5Z0 63-518): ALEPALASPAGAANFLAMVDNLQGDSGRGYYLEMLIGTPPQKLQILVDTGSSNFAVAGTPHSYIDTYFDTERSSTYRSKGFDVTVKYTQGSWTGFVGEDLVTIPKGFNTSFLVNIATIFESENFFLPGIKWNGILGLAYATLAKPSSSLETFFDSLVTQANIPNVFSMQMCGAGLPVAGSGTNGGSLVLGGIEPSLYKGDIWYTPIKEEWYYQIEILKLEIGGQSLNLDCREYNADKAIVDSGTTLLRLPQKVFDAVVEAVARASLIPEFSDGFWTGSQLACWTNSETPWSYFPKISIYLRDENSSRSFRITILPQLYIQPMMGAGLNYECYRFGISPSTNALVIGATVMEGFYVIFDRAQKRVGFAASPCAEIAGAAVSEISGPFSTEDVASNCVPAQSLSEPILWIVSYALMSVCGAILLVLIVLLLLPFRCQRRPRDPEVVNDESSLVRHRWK

[1] = 10 nM enzyme, 25 μM substrate WABC-6, pH 4.5, room temperature, read-out: IC50 (μM) BACE1

human BACE1, sequence (P56817 46-501): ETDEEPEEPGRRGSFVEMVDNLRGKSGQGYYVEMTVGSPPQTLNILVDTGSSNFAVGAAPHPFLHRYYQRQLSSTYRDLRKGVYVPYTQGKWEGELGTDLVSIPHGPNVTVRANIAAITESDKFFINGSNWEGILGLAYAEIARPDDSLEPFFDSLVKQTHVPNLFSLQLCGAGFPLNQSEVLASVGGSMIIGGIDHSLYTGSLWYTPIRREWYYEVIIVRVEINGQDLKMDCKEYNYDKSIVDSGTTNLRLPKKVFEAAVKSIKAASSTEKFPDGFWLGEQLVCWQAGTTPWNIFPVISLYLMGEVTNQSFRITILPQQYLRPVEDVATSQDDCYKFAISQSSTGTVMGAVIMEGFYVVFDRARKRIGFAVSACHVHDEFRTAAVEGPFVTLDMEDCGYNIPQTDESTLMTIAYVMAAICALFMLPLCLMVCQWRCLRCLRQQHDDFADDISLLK

SMILES	IC50 (human BACE1; [1])	BACE1/BACE2 selectivity (human BACE2)	melting point	IC50 (human BACE1)
CN1C(=O)C(c2ccc(OC(F)(F)F)cc2)(c2ccc(F)c(-c3cnn(C)c3)c2)N=C1N (stereo not shown) [Example 100, 2-Amino-5-[4-fluoro-3-(1-methyl-1H-pyrazol-4-yl)phenyl]3-methyl-5-[4-(trifluoromethoxy)phenyl]-3,5-dihydro-4H-imidazol-4-one]	0.11 to 1 µM	III (III = <10-fold selectivity)	–	–
COc1ccc(C2(c3cccc(-c4cccnc4OC)c3)N=C(N)N(C)C2=O)cc1C (stereo not shown) [Example 75]	0.11 to 1 µM	II (II = 10-100-fold selectivity)	–	–
COc1ncccc1-c1cccc(C2(c3ccc(OC(F)(F)F)cc3)N=C(N)N(C)C2=O)c1 (stereo not shown) [Example 52]	0.11 to 1 µM	II (II = 10-100-fold selectivity)	–	–
CN1C(=O)C(c2ccc(OC(F)(F)F)c(F)c2)(c2ccc(F)c(-c3cncc(F)c3)c2)N=C1N (stereo not shown) [Example 41, 2-Amino-5-[4-fluoro-3-(5-fluoropyridin-3-yl)phenyl]-5-[3-fluoro-4-(trifluoromethoxy)phenyl]-3-methyl-3,5-dihydro-imidazol-4-one]	0.11 to 1 µM	II (II = 10-100-fold selectivity)	–	–
CN1C(=O)C(c2ccc(OC(F)(F)F)cc2)(c2cccc(-c3ccc(F)nc3)c2)N=C1N (stereo not shown) [Example 65]	0.11 to 1 µM	II (II = 10-100-fold selectivity)	–	–
COc1ccc([C@@]2(c3ccc(F)c(-c4cncc(F)c4)c3)N=C(N)N(C)C2=O)cc1 [Example 142A, (5S)-2-Amino-5-[4-fluoro-3-(5-fluoropyridin-3-yl)phenyl]-5-(4-methoxyphenyl)-3-methyl-3,5-dihydro-4H-imidazol-4-one]	> 1 µM	III (III = <10-fold selectivity)	–	–
CCOc1ccc(C2(c3cccc(-c4cccnc4OC)c3)N=C(N)N(C)C2=O)cc1OCC (stereo not shown) [Example 68]	0.11 to 1 µM	III (III = <10-fold selectivity)	–	–
CCN1C(=O)C(c2ccc(OC(F)F)cc2)(c2ccc(F)c(-c3cncc(F)c3)c2)N=C1N (stereo not shown) [Example 128]	0.11 to 1 µM	II (II = 10-100-fold selectivity)	–	–
CN1C(=O)C(c2ccc(OC(F)(F)F)cc2)(c2cc(-c3cccnc3)ccc2F)N=C1N (stereo not shown) [Example 84]	0.11 to 1 µM	I (I = >100-fold selectivity)	–	–
CCCNC1=NC(c2cccc(-c3cncnc3)c2)(c2ccc(OCCC)c(C)c2)C(=O)N1C (stereo not shown)	–	–	64 to 66 °C	–
COc1ccc([C@@]2(c3ccc(F)c(-c4cnccc4F)c3)N=C(N)N(C)C2=O)cc1 [Example 143A, (5S)-2-Amino-5-[4-fluoro-3-(4-fluoropyridin-3-yl)phenyl]-5-(4-methoxyphenyl)-3-methyl-3,5-dihydro-4H-imidazol-4-one]	> 1 µM	III (III = <10-fold selectivity)	–	–
CN1C(=O)C(c2ccc(OC(F)(F)F)cc2)(c2ccc(F)c(-c3ccc(F)nc3)c2)N=C1N (stereo not shown) [Example 73]	0.11 to 1 µM	II (II = 10-100-fold selectivity)	–	–
CN1C(=O)[C@](c2ccc(OC(F)F)cc2)(c2ccc(F)c(-c3ccc(F)nc3)c2)N=C1N [Example 134A, (5S)-2-Amino-5-[4-(difluoromethoxy)phenyl]-5-[4-fluoro-3-(6-fluoropyridin-3-yl)phenyl]-3-methyl-3,5-dihydro-4H-imidazol-4-one]	0.11 to 1 µM	III (III = <10-fold selectivity)	–	–
NC1=NC(c2ccc(OC(F)(F)F)cc2)(c2ccc(F)c(-c3cncnc3)c2)C(=O)N1CCF (stereo not shown) [Example 126]	0.11 to 1 µM	I (I = >100-fold selectivity)	–	–
CCOc1cc(C2(c3cccc(-c4cccnc4)c3)N=C(N)N(C)C2=O)ccc1OC (stereo not shown) [Example 24]	–	II (II = 10-100-fold selectivity)	–	0.01 to 0.1 µM
NC1=NC(c2ccc(OC(F)(F)F)cc2)(c2ccc(F)c(-c3cccnc3F)c2)C(=O)N1CCF (stereo not shown) [Example 127]	0.11 to 1 µM	I (I = >100-fold selectivity)	–	–

The remaining lines, values ahead:

IC50 (human BACE1; [1])	BACE1/BACE2 selectivity (human BACE2)	melting point	IC50 (human BACE1)	SMILES
0.01 to 0.1 µM	II (II = 10-100-fold selectivity)	–	–	CCOc1ccc([C@]2(c3cccc(-c4cccnc4F)c3)N=C(N)N(C)C2=O)cc1OCC [Example 103B, (5S)-2-Amino-5-(3,4-diethoxyphenyl)-5-[3-(2-fluoropyridin-3-yl)phenyl]-3-methyl-3,5-dihydro-4H-imidazol-4-one]
0.01 to 0.1 µM	II (II = 10-100-fold selectivity)	–	–	CN1C(=O)[C@@](c2ccc(OC(F)F)cc2)(c2ccc(F)c(-c3ccc(F)nc3)c2)N=C1N [Example 134B, (5R)-2-Amino-5-[4-(difluoromethoxy)phenyl]-5-[4-fluoro-3-(6-fluoropyridin-3-yl)phenyl]-3-methyl-3,5-dihydro-4H-imidazol-4-one]
0.01 to 0.1 µM	II (II = 10-100-fold selectivity)	–	–	CN1C(=O)C(c2ccc(OC(F)F)cc2)(c2ccc(F)c(-c3cc(F)cnc3F)c2)N=C1N (stereo not shown) [Example 92]
0.01 to 0.1 µM	II (II = 10-100-fold selectivity)	–	–	CN1C(=O)C(c2ccc(OC(F)F)cc2)(c2cccc(-c3ccc(F)nc3)c2)N=C1N (stereo not shown) [Example 90]
0.01 to 0.1 µM	II (II = 10-100-fold selectivity)	–	–	CN1C(=O)C(c2ccc(OC(F)(F)F)c(F)c2)(c2ccc(F)c(-c3cccnc3F)c2)N=C1N (stereo not shown) [Example 43]
0.01 to 0.1 µM	I (I = >100-fold selectivity)	–	–	COc1ccc(C2(c3ccc(F)c(-c4cncnc4)c3)N=C(N)N(C)C2=O)cc1 (stereo not shown) [Example 63]
0.01 to 0.1 µM	II (II = 10-100-fold selectivity)	–	–	CCN1C(=O)C(c2cccc(-c3cccnc3)c2)(c2ccc(OC)c(C)c2)N=C1N (stereo not shown) [Example 8]
0.01 to 0.1 µM	II (II = 10-100-fold selectivity)	–	–	CN1C(=O)[C@@](c2ccc(OC(F)F)cc2)(c2ccc(F)c(-c3cccnc3F)c2)N=C1N [Example 133B, (5R)-2-Amino-5-[4-(difluoromethoxy)phenyl]-5-[4-fluoro-3-(2-fluoropyridin-3-yl)phenyl]-3-methyl-3,5-dihydro-4H-imidazol-4-one]
0.01 to 0.1 µM	II (II = 10-100-fold selectivity)	–	–	CN1C(=O)C(c2ccc(OC(F)F)cc2)(c2ccc(F)c(-c3ccc(F)nc3)c2)N=C1N (stereo not shown) [Example 88]
0.01 to 0.1 µM	III (III = <10-fold selectivity)	–	–	CCCOc1cc(C2(c3cccc(-c4cccnc4)c3)N=C(N)N(C)C2=O)ccc1OC (stereo not shown) [Example 16]
0.01 to 0.1 µM	II (II = 10-100-fold selectivity)	–	–	CN1C(=O)C(c2ccc(OC(F)(F)F)cc2)(c2ccc(F)c(-c3cccnc3F)c2)N=C1N (stereo not shown) [Example 74]
0.01 to 0.1 µM	II (II = 10-100-fold selectivity)	–	–	COc1ccc(C2(c3ccc(F)c(-c4cccnc4F)c3)N=C(N)N(C)C2=O)cc1 (stereo not shown) [Example 62]
0.01 to 0.1 µM	II (II = 10-100-fold selectivity)	–	–	CN1C(=O)C(c2ccc(OC(F)(F)F)c(F)c2)(c2ccc(F)c(-c3cnccc3F)c2)N=C1N (stereo not shown) [Example 78]
0.01 to 0.1 µM	II (II = 10-100-fold selectivity)	–	–	COc1ccc(C2(c3ccc(F)c(-c4ccc(F)nc4)c3)N=C(N)N(C)C2=O)cc1C(F)(F)F (stereo not shown) [Example 57]
0.01 to 0.1 µM	–	112 to 114 °C	–	Cc1cc(C2(c3cccc(-c4cncnc4)c3)N=C(N)N(C)C2=O)ccc1O[C@H](C)c1ccccc1 (stereo partly drawn) [Example 131, 2-amino-3-methyl-5-{3-methyl-4-[(1R)-1-phenylethoxy]phenyl}-5-(3-pyrimidin-5-ylphenyl)-3,5-dihydro-4H-imidazol-4-one]
0.01 to 0.1 µM	II (II = 10-100-fold selectivity)	–	–	CN1C(=O)[C@@](c2ccc(OC(F)F)cc2)(c2cccc(-c3cc(F)cnc3F)c2)N=C1N [Example 137B, (5R)-2-Amino-5-[4-(difluoromethoxy)phenyl]-5-[3-(2,5-difluoropyridin-3-yl)phenyl]-3-methyl-3,5-dihydro-4H-imidazol-4-one]
0.01 to 0.1 µM	II (II = 10-100-fold selectivity)	–	–	CCOc1ccc([C@]2(c3ccc(F)c(-c4cccnc4F)c3)N=C(N)N(C)C2=O)cc1OCC [Example 136A, (5S)-2-Amino-5-(3,4-diethoxyphenyl)-5-[4-fluoro-3-(2-fluoropyridin-3-yl)phenyl]-3-methyl-3,5-dihydro-4H-imidazol-4-one]
0.01 to 0.1 µM	II (II = 10-100-fold selectivity)	–	–	COc1ccc([C@]2(c3ccc(F)c(-c4cnccc4F)c3)N=C(N)N(C)C2=O)cc1 [Example 143B, (5R)-2-Amino-5-[4-fluoro-3-(4-fluoropyridin-3-yl)phenyl]-5-(4-methoxyphenyl)-3-methyl-3,5-dihydro-4H-imidazol-4-one]
0.01 to 0.1 µM	III (III = <10-fold selectivity)	–	–	CCOc1ccc(C2(c3cccc(-c4ccc(F)nc4)c3)N=C(N)N(C)C2=O)cc1OCC (stereo not shown) [Example 69]
0.01 to 0.1 µM	II (II = 10-100-fold selectivity)	–	–	COc1ccc(C2(c3cccc(-c4cnccn4)c3)N=C(N)N(C)C2=O)cc1C (stereo not shown) [Example 9]
0.01 to 0.1 µM	III (III = <10-fold selectivity)	–	–	COc1ccc(C2(c3ccc(F)c(-c4cncc(Cl)c4)c3)N=C(N)N(C)C2=O)cc1 (stereo not shown) [Example 80]
